# Measured values taken from patent US11427553B2, “Dihydrooxadiazinones” (Bayer Aktiengesellschaft, priority 2017, dated 2022).
# Experiments:
# SK-MEL-3 cells = experiment: Assay 1 cell proliferation measurement (CTG, 72 h), SK-MEL-3; type: cell-based, human; conditions: Homo sapiens, SK-MEL3; Assay 1, 72 h, Cell Titer Glo; read-out: SK-MEL-3 IC50 [nM] (melanoma)
# In short: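 Cells were plated, grown overnight at 37 °C, then treated 72 h with a 10-step 2.5-fold dilution series from 100 nM maximum final (0.3% DMSO vehicle). Viability was read by CellTiter-Glo luminescence. IC50 from a 4-parameter fit, normalised to a 0 h plate (maximum inhibition) and DMSO control (minimum inhibition).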
# A2058 cells = experiment: Assay 2 cell proliferation measurement, A2058; type: cell-based; conditions: Homo sapiens, Melanoma, read-out: Anti-proliferation IC50 [nM] A2058
# Protocol: (§1) Cell Proliferation Measurement
# (§2) The antiproliferative activity of the compounds of the general formula (I) was examined in vitro in human cancer cells. For this purpose, 500 cells, including HeLa cells, A2058 cells, DU145 cells, HMCB cells, IGR37 cells, NCIH1734 cells, OSRC2 cells, or 750 cells, including CAL51 cells, COL0741 cells, DBTRG05MG cells, DKMG cells, G292CLONEA141B1 cells, GB1 cells, HEL cells, HEL9217 cells, JHUEM1 cells, L3.3 cells, LI7 cells, TE4 cells, or 1000 cells, including 8505C cells, HUT78 cells, NCIH1563 cells, NCIH2122 cells, NCIH2172 cells, RVH421 cells, SKMEL3 cells, or 1500 cells, including C32 cells, HS578T cells, JHOM1 cells, NCIH196 cells, OVKATE cells, were plated in 384-well plates with appropriate growth medium and incubated at 37° C. overnight. After 24 h, the cells on the test plate were treated with the compounds of the general formula (I) as and incubated at 37° C. for 72 h. The compounds were added to the cells by means of an HP D300 digital dispenser in a 10 (or more)-step dilution series. As control, the cells were treated with vehicle (DMSO at 0.3% final concentration). After 72 h, the cells were treated with 20 μl/well of 50% CTG solution in PBS (Promega Cell Titer Glo (catalogue #G755B and G756B)) and incubated at room temperature for 10 min, and luminescence was measured by means of a VICTOR V (Perkin Elmer), in order to determine cell viability at the end of treatment. The percentage effect on cell growth and the IC50 derived therefrom were determined for each test substance using the values from untreated wells (=percent viability). The IC50 values were calculated using a 4-parameter fit.
# L3.3 cells = experiment: Assay 2 cell proliferation measurement, L3.3; type: cell-based; conditions: Homo sapiens, Pancreas NS, read-out: Anti-proliferation IC50 [nM] L3.3
# Protocol: as §1, §2
# [1] = tested on: IGR-37 xenograft (Melanoma); experiment: Assay 3 in vivo xenotransplantation model, IGR-37; conditions: IGR-37 melanoma xenograft, mice, 10 mg/kg 2QD p.o.; * P < 0.05 vs control
# From the text: In Vivo Xenotransplantation Models
# The anti-tumor activities of Compounds of examples 135 and 146 were examined in murine xenotransplantation models of human cancer. For this purpose, mice were implanted subcutaneously with tumor cells. At a mean tumor size of 20-40 mm^2 animals were randomized into treatment and control groups (at least n=10 animals/group) and treatment started with vehicle only or respective Compound (formulation: 90% PEG400/10% Ethanol; application route: per os (“p.o.”), orally). The oral application volume was 10 ml/kg. In the case of twice daily treatments, the time interval between two applications per day was 6-7 h. The tumor size and the body weight were determined at least weekly. The tumor area was detected by means of an electronic caliper [length (mm)×width (mm)]. The experiment was ended when the study reached the pre-determined ethical endpoint based on German and European animal welfare regulations. In vivo anti-tumor efficacy is presented as T/C ratio at study end (Treatment/Control; mean tumor weight of treatment group/mean tumor weight of control group) in Table 8. A compound having a T/C below 0.5 is defined as active (i.e., effective). Statistical analysis was assessed using SigmaStat software. A one-way analysis of variance was performed and differences to the control were compared by a pair-wise comparison procedure (Dunn's method).
Structure (SMILES),IC50 (SK-MEL-3 cells),IC50 (A2058 cells),IC50 (L3.3 cells),T/C (mean final tumor weight treatment / control) [1]
"C[C@@H]1OC(=O)NN=C1c1ccc(-c2ccc(F)cc2)c(C(F)(F)F)c1 [Example 135, (6S)-5-[4′-Fluoro-2-(trifluoromethyl)biphenyl-4-yl]-6-methyl-3,6-dihydro-2H-1,3,4-oxadiazin-2-one]",3 nM,38 nM,82 nM,0.06*
"O=C1NN=C(c2ccc(-c3ccc(Cl)cc3)c(C(F)(F)F)c2)CO1 [Example 31, 5-[4′-Chloro-2-(trifluoromethyl)biphenyl-4-yl]-3,6-dihydro-2H-1,3,4-oxadiazin-2-one]",11 nM,–,–,–
"O=C1NN=C(c2ccc(-c3ccc(F)cc3)c(C(F)(F)F)c2)CO1 [Example 3, 5-[4′-Fluoro-2-(trifluoromethyl)biphenyl-4-yl]-3,6-dihydro-2H-1,3,4-oxadiazin-2-one]",7 nM,–,–,–

# Continued, in another order:
IC50 (SK-MEL-3 cells),Structure (SMILES),IC50 (A2058 cells),IC50 (L3.3 cells),T/C (mean final tumor weight treatment / control) [1]
5 nM,"C[C@@H]1OC(=O)NN=C1c1ccc(-n2ccc(C(F)(F)F)n2)c(C(F)(F)F)c1 [Example 265, (6S)-6-Methyl-5-{3-(trifluoromethyl)-4-[3-(trifluoromethyl)-1H-pyrazol-1-yl]phenyl}-3,6-dihydro-2H-1,3,4-oxadiazin-2-one]",96 nM,312 nM,0.27*
2 nM,"O=C1NN=C(c2ccc(-c3cnn(C(F)F)c3)c(C(F)(F)F)c2)CO1 [Example 146, 5-{4-[1-(Difluoromethyl)-1H-pyrazol-4-yl]-3-(trifluoromethyl)phenyl}-3,6-dihydro-2H-1,3,4-oxadiazin-2-one]",25 nM,15 nM,0.05*
